# According to US10076519B2 (CYTOKINETICS, INC., priority 2010, dated 2018):
# Tested on: rabbit skeletal myofibrils (fast skeletal myofibrils)
# Experiment: Activation of fast skeletal myofibrils (PUMA assay, PK/LDH-coupled ATPase at pCa25)
# Type: biochemical
# Details: AC1.4 determined according to the procedure of Example 39; reported as class symbols
# Procedure, shortened: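 ATPase activity of Triton-washed rabbit skeletal myofibrils, roughly 90% fast fibres, tracked by NADH loss at 340 nm through a PK/LDH-coupled ADP-regenerating system. Calcium set to 25% of maximal activity (pCa25), in PIPES 12 mM pH 6.8 with 2 mM MgCl2 and 1 mM DTT; AC1.4 reported.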
row,Mean AC1.4,Compound
1,C (C=10-20 uM),Fc1cccnc1C1(CNc2ccc(-c3cn[nH]c3)nn2)CCC1 [{[(3-fluoro(2-pyridyl))cyclobutyl]methyl}(6-pyrazol-4-ylpyridazin-3-yl)amine]
2,A (A=<1 uM),CC(C)Nc1n[nH]c2ccc(-c3ccc(NCC4(c5ncccc5F)CCC4)nn3)cc12 [{[(3-fluoro(2-pyridyl))cyclobutyl]methyl}(6-{3-[(methylethyl)amino](1H-indazol-5-yl)}pyridazin-3-yl)amine]
3,D (D=>20 uM),Cn1cc(-c2ccc(NCC3(c4ncccc4F)CCC3)nn2)cn1 [{[(3-fluoro(2-pyridyl))cyclobutyl]methyl}[6-(1-methylpyrazol-4-yl)pyridazin-3-yl]amine]
4,A (A=<1 uM),CNc1n[nH]c2ccc(-c3ccc(NCC4(c5ncccc5F)CCC4)nn3)cc12 [{[(3-fluoro(2-pyridyl))cyclobutyl]methyl}{6-[3-(methylamino)(1H-indazol-5-yl)]pyridazin-3-yl}amine]
5,B (B=1-10 uM),COc1ncc(-c2ccc(NCC3(c4ccc(F)cc4)CCC3)nn2)cn1 [{[(4-fluorophenyl)cyclobutyl]meth-yl}[6-(2-methoxypyrimidin-5-yl)pyridazin-3-yl]amine]

# Same assay, conditions: median AC1.4 class, procedure of Example 39
row,Mean AC1.4,Compound
1,B (B=1-10 uM),"Fc1cccnc1C1(CNc2ccc(-c3nccs3)nn2)CCC1 [{[(3-fluoro(2-pyridyl))cyclobutyl]methyl}(6-(1,3-thiazol-2-yl)pyridazin-3-yl)amine]"
2,B (B=1-10 uM),"Fc1cccnc1C1(CNc2ccc(-c3nc4cccnc4s3)nn2)CCC1 [{[(3-fluoro(2-pyridyl))cyclobutyl]methyl}(6-(1,3-thiazolino[5,4-b]pyridin-2-yl)pyridazin-3-yl)amine]"
3,B (B=1-10 uM),Fc1cccnc1C1(CNc2ccc(-c3ccccn3)nn2)CCC1 [{[(3-fluoro(2-pyridyl))cyclobutyl]methyl}(6-(2-pyridyl)pyridazin-3-yl)amine]
4,D (D=>20 uM),"Fc1cccnc1C1(CNc2ccc(-c3nc4c(s3)CNC4)nn2)CCC1 [{[(3-fluoro(2-pyridyl))cyclobutyl]methyl}(6-(3-pyrrolino[3,4-d]1,3-thiazol-2-yl)pyridazin-3-yl)amine]"
5,A (A=<1 uM),Fc1cccnc1C1(CNc2ccc(-c3ccccc3)nn2)CCC1 [{[(3-fluoro(2-pyridyl))cyclobutyl]methyl}(6-phenylpyridazin-3-yl)amine]
6,B (B=1-10 uM),Fc1cccnc1C1(CNc2ccc(-c3cnccn3)nn2)CCC1 [{[(3-fluoro(2-pyridyl))cyclobutyl]methyl}(6-pyrazin-2-ylpyridazin-3-yl)amine]
7,D (D=>20 uM),Fc1cccnc1C1(CNc2ccc(-c3ccnnc3)nn2)CCC1 [{[(3-fluoro(2-pyridyl))cyclobutyl]methyl}(6-pyridazin-4-ylpyridazin-3-yl)amine]
8,B (B=1-10 uM),Fc1cccnc1C1(CNc2ccc(-c3ncccn3)nn2)CCC1 [{[(3-fluoro(2-pyridyl))cyclobutyl]methyl}(6-pyrimidin-2-ylpyridazin-3-yl)amine]
9,D (D=>20 uM),C=Cc1ccc(NCC2(c3ncccc3F)CCC2)nn1 [{[(3-fluoro(2-pyridyl))cyclobutyl]methyl}(6-vinylpyridazin-3-yl)amine]
10,C (C=10-20 uM),Cc1ncccc1-c1ccc(NCC2(c3ncccc3F)CCC2)nn1 [{[(3-fluoro(2-pyridyl))cyclobutyl]methyl}[6-(2-methyl(3-pyridyl))pyridazin-3-yl]amine]
11,D (D=>20 uM),Cc1ncc(-c2ccc(NCC3(c4ncccc4F)CCC3)nn2)cn1 [{[(3-fluoro(2-pyridyl))cyclobutyl]methyl}[6-(2-methylpyrimidin-5-yl)pyridazin-3-yl]amine]
12,D (D=>20 uM),Fc1cccnc1C1(CNc2ccc(-c3cnc(N4CCNCC4)nc3)nn2)CCC1 [{[(3-fluoro(2-pyridyl))cyclobutyl]methyl}[6-(2-piperazinylpyrimidin-5-yl)pyridazin-3-yl]amine]
13,B (B=1-10 uM),Fc1cccnc1-c1ccc(NCC2(c3ncccc3F)CCC2)nn1 [{[(3-fluoro(2-pyridyl))cyclobutyl]methyl}[6-(3-fluoro(2-pyridyl))pyridazin-3-yl]amine]
14,D (D=>20 uM),Fc1cccnc1C1(CNc2ccc(-c3ccc(N4CCOCC4)cc3)nn2)CCC1 [{[(3-fluoro(2-pyridyl))cyclobutyl]methyl}[6-(4-morpholin-4-ylphenyl)pyridazin-3-yl]amine]
15,D (D=>20 uM),"COc1ccc2nc(-c3ccc(NCC4(c5ncccc5F)CCC4)nn3)sc2n1 [{[(3-fluoro(2-pyridyl))cyclobutyl]methyl}[6-(5-methoxy(1,3-thiazolino[5,4-b]pyridin-2-yl))pyridazin-3-yl]amine]"
16,B (B=1-10 uM),COc1ccc(-c2ccc(NCC3(c4ncccc4F)CCC3)nn2)nc1 [{[(3-fluoro(2-pyridyl))cyclobutyl]methyl}[6-(5-methoxy(2-pyridyl))pyridazin-3-yl]amine]
17,A (A=<1 uM),"Fc1cccnc1C1(CNc2ccc(-c3ncc(-c4cc[nH]n4)s3)nn2)CCC1 [{[(3-fluoro(2-pyridyl))cyclobutyl]methyl}[6-(5-pyrazol-3-yl(1,3-thiazol-2-yl))pyridazin-3-yl]amine]"
18,A (A=<1 uM),"Fc1cccnc1C1(CNc2ccc(-c3ncc(-c4cn[nH]c4)s3)nn2)CCC1 [{[(3-fluoro(2-pyridyl))cyclobutyl]methyl}[6-(5-pyrazol-4-yl(1,3-thiazol-2-yl))pyridazin-3-yl]amine]"
19,B (B=1-10 uM),"Fc1cccnc1C1(CNc2ccc(-c3ncc(CC(F)(F)F)s3)nn2)CCC1 [{[(3-fluoro(2-pyridyl))cyclobutyl]methyl}{6-[5-(2,2,2-trifluoroethyl)(1,3-thiazol-2-yl)]pyridazin-3-yl}amine]"
20,A (A=<1 uM),"(2S)-2-amino-N-({2-[6-({[(3- fluoro(2- pyridyl))cyclobutyl]methyl}ami- no)pyridazin-3-yl](1,3-thiazol-5- yl)}methyl)-3-hydroxy-3- methylbutanamide"
21,D (D=>20 uM),"ethyl 2-[6-({[(3-fluoro-2- pyridyl)cyclobutyl]methyl}ami- no)pyridazin-3-yl]-1,3-thiazole-4- carboxylate"

# Same assay, conditions: median AC1.4 reported as class; procedure of Example 39
row,Mean AC1.4,Compound
1,B (B=1-10 uM),CNc1ccc(-c2ccc(NC[C@]3(c4ncccc4F)C[C@H](F)C3)nn2)cn1 [{[3-fluoro-1-(3-fluoro(2-pyridyl))cyclobutyl]methyl}{6-[6-(methylamino)(3-pyridyl)]pyridazin-3-yl}amine]
2,D (D=>20 uM),"Fc1cccnc1C1(CNc2ccc(-c3nc4c(s3)CNCC4)nn2)CCC1 [{[(3-fluoro(2-pyridyl))cyclobutyl]methyl}(6-(4,5,6,7-tetrahydro-1,3-thiazolo[5,4-c]pyridin-2-yl)pyridazin-3-yl)amine]"
3,B (B=1-10 uM),"CN1CCN(Cc2cnc(-c3ccc(NCC4(c5ncccc5F)CCC4)nn3)s2)CC1 [{[(3-fluoro(2-pyridyl))cyclobutyl]methyl}(6-{5-[(4-methylpiperazinyl)methyl](1,3-thiazol-2-yl)}pyridazin-3-yl)amine]"
4,B (B=1-10 uM),"Fc1cccnc1C1(CNc2ccc(-c3ncc(CN4CCN(CC(F)(F)F)CC4)s3)nn2)CCC1 [{[(3-fluoro(2-pyridyl))cyclobutyl]methyl}[6-(5-{[4-(2,2,2-trifluoroethyl)piperazinyl]meth-yl}(1,3-thiazol-2-yl))pyridazin-3-yl]amine]"
5,D (D=>20 uM),Fc1cccnc1C1(CNc2ccc(Cc3ccccc3)nn2)CCC1 [{[(3-fluoro(2-pyridyl))cyclobutyl]methyl}[6-benzylpyridazin-3-yl]amine]
6,B (B=1-10 uM),"Fc1cccnc1C1(CNc2ccc(-c3ncc(CN4CCOCC4)s3)nn2)CCC1 [{[(3-fluoro(2-pyridyl))cyclobutyl]methyl}{6-[5-(morpholin-4-ylmethyl)(1,3-thiazol-2-yl)]pyridazin-3-yl}amine]"
7,B (B=1-10 uM),"Fc1cccnc1C1(CNc2ccc(-c3ncc(CN4CCNCC4)s3)nn2)CCC1 [{[(3-fluoro(2-pyridyl))cyclobutyl]methyl}{6-[5-(piperazinylmethyl)(1,3-thiazol-2-yl)]pyridazin-3-yl}amine]"
8,D (D=>20 uM),[6-({[(3-fluoro(2- pyridyl))cyclobutyl]methyl}ami- no)pyridazin-3-yl]-N-[(5- oxopyrrolidin-3- yl)methyl]carboxamide
